These results are taken from ChEMBL document CHEMBL1123364, “Selective thromboxane synthetase inhibitors. 4. 2-(1H-imidazol-1-ylmethyl) carboxylic acids of benzo[b]furan, benzo[b]thiophene, indole, and naphthalene” (J Med Chem, 1986).

Bounds are passed on as bounds.

The target of one data set is T1, Thromboxane-A synthase (Homo sapiens, UniProt P24557).
T1 sequence (P24557 whole entry): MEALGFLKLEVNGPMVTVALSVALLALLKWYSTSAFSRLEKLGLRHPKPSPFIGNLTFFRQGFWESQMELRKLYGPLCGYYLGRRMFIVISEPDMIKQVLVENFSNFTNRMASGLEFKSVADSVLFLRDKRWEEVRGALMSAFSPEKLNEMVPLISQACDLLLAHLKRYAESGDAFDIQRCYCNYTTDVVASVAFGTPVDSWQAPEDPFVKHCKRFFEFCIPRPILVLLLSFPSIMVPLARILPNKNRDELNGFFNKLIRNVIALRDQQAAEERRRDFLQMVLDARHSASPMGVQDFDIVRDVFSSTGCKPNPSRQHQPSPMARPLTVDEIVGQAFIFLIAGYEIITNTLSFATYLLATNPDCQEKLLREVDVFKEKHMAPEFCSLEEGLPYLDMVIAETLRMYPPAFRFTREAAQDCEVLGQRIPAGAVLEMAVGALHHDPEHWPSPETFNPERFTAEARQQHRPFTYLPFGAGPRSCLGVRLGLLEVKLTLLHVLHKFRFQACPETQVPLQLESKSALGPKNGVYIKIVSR
Nature of the data set: Inhibition of TXA2 synthetase from human platelets.

In the next data set the target is T2, Cyclooxygenase (Rattus norvegicus, UniProt P35355+Q63921).
T2 sequence (P35355 whole entry): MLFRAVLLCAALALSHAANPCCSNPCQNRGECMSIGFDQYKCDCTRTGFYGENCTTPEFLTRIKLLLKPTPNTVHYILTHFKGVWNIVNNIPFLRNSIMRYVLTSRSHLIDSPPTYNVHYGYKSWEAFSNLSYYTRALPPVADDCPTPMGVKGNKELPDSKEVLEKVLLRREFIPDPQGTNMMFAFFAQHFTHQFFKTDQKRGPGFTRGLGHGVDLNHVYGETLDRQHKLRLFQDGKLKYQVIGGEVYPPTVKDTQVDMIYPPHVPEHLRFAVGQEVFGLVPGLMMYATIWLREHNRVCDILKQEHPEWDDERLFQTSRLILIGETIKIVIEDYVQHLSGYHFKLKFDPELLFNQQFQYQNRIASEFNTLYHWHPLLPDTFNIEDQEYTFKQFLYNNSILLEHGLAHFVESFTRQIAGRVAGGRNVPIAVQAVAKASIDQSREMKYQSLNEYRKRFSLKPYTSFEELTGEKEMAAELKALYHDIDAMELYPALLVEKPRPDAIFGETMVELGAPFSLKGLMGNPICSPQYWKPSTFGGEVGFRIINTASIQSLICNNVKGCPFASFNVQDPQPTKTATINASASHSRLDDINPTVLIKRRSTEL
T2 sequence (Q63921 whole entry): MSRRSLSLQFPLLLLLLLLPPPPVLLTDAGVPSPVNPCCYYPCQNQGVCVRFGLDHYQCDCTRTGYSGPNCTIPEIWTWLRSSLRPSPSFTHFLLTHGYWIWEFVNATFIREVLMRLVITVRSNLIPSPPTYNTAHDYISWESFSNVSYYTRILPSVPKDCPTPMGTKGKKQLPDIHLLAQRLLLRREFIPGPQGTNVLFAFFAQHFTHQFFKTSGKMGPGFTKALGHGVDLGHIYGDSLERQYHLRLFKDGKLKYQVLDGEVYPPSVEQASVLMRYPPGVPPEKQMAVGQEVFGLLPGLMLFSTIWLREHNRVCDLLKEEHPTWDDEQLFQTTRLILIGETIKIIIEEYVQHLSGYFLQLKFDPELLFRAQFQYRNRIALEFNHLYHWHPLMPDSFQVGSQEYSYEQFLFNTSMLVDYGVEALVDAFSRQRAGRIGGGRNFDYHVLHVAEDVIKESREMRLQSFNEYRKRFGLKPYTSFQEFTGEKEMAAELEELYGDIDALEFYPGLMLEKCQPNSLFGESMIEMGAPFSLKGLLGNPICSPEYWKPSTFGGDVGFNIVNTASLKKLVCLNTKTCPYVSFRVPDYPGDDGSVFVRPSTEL
Nature of the data set: Inhibition of cyclooxygenase from RBL-1 cells. The class given is cell-based.

The target in data set [1] is T3, Cytochrome P450 11B1, mitochondrial (Rattus norvegicus, UniProt P15393).
T3 sequence (P15393 whole entry): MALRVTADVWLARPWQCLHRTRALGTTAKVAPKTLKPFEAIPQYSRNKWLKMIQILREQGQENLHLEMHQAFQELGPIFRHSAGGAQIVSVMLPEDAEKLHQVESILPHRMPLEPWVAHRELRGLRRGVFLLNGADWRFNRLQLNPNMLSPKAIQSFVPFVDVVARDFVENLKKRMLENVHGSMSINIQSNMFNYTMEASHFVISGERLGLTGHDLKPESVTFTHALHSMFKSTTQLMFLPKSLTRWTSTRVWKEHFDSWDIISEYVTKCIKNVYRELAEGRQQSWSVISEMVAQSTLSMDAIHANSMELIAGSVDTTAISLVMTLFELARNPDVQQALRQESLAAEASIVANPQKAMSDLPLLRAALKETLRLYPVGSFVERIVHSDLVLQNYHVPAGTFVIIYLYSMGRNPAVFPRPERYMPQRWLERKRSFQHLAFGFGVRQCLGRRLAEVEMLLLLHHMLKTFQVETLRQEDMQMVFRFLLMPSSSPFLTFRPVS
The data set is described as follows: Inhibition of rat adrenal 11-beta-hydroxylase.

The nature of data set [2]: Ionisation constant in presence of acid. The format is ADME.
Data set [3] is described as follows: Ionisation constant in presence of base. The class given is ADME.

Broadly, the IC50 is the concentration at which inhibition is half-maximal. A higher IC50 goes with a need for much substance. Regarding `Cc1c(Cn2ccnc2)[nH]c2ccc(C(=O)O)cc12`, the IC50 on Thromboxane-A synthase worked out at 37 nM.

Consider `O=C(O)c1ccc2cc(Cn3ccnc3)ccc2c1`, for which half-maximal inhibition against Thromboxane-A synthase (IC50) required 34 nM.

Turning to `O=C(O)c1ccc2sc(Cn3ccnc3)c(Cl)c2c1`, the values for the IC50 against Cyclooxygenase and against Thromboxane-A synthase were over 0.0002 M and 22 nM, respectively.

The compound `O=C(O)c1cccc2cc(Cn3ccnc3)ccc12` displayed an IC50 against Thromboxane-A synthase of 71 nM.

By pKa is commonly meant the negative logarithm of the acid dissociation constant. With `Cc1c(Cn2ccnc2)sc2ccc(C(=O)O)cc12`, the IC50 in data set [1] was over 100 µM; against Cyclooxygenase it was over 0.0002 M; against Thromboxane-A synthase, 17 nM. Moreover, the figures for the pKa in data set [2] and in data set [3] were 3.82 and 6.58, respectively.

At Thromboxane-A synthase, `O=C(O)c1ccc2oc(Cn3ccnc3)c(Br)c2c1` registered an IC50 of 30 nM.

Take `Cc1c(Cn2ccnc2)oc2ccc(C(=O)O)cc12`: the figures for the IC50 (in data set [1]; against Cyclooxygenase; against Thromboxane-A synthase) were 100 µM, over 0.0002 M and 34 nM, respectively. Moreover, the values for the pKa in data set [2] and in data set [3] were 3.91 and 6.08, respectively.

The compound `CSc1c(Cn2ccnc2)sc2ccc(C(=O)O)cc12` displayed an IC50 on Thromboxane-A synthase of 43 nM.

Consider `Cc1c(Cn2ccnc2)n(C)c2ccc(C(=O)O)cc12`, for which the pKa is 4.08 in data set [2] and 6.32 in data set [3]. In addition, the results for the IC50 on Cyclooxygenase and at Thromboxane-A synthase were over 0.0002 M and 32 nM, respectively.

As for `O=C(O)c1ccc2oc(Cn3ccnc3)cc2c1`, the IC50 against Thromboxane-A synthase came out at 12 nM.

Turning to `O=C(O)c1ccc2sc(Cn3ccnc3)cc2c1`, the IC50 in data set [1] is over 100 µM; against Cyclooxygenase it was over 0.0002 M; against Thromboxane-A synthase, 15 nM. For the same compound, the pKa worked out at 3.9 in data set [2] and 6.34 in data set [3].

Consider `Cc1c(Cn2ccnc2)sc2cc(C(=O)O)ccc12`, for which the IC50 is over 0.0002 M against Cyclooxygenase and 18 nM against Thromboxane-A synthase.

Regarding `O=C(O)c1ccc2c(Cl)c(Cn3ccnc3)sc2c1`, the IC50 is over 0.0002 M at Cyclooxygenase and 40 nM against Thromboxane-A synthase.

On to `O=C(O)c1ccc2sc(Cn3ccnc3)c(Br)c2c1`, for which the IC50 in data set [1] was over 100 µM; at Thromboxane-A synthase it was 27 nM.

As for `O=C(O)c1ccc2oc(Cn3ccnc3)c(Cl)c2c1`, the half-inhibitory concentration (IC50) was over 100 µM in data set [1], over 0.0002 M against Cyclooxygenase and 31 nM against Thromboxane-A synthase.

Regarding `O=C(O)c1ccc(OCCn2ccnc2)cc1` [DAZOXIBEN], in data set [1], the half-maximal inhibitory concentration (IC50) is over 100 µM.
